From BindingDB's records for doi:10.1016/0960-894X(95)00549-9 (1996)

Target: T1, Bile salt-activated lipase (Bos taurus, UniProt P30122)
T1 sequence (P30122 whole entry): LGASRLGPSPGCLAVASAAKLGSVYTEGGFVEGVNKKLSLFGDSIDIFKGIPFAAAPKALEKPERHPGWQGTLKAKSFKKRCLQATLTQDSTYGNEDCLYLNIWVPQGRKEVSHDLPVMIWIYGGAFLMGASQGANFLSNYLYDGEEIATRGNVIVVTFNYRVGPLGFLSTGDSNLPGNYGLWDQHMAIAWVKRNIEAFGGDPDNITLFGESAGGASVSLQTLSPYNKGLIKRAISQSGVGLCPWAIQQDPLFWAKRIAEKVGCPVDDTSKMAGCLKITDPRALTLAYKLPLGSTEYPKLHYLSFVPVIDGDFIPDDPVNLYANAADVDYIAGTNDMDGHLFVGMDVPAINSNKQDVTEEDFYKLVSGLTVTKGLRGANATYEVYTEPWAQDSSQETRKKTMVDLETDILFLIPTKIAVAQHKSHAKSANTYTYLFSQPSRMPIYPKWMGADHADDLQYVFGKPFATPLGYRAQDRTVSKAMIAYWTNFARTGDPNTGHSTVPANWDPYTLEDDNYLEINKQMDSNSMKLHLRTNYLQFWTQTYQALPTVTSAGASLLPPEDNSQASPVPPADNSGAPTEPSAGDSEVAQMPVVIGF
Assay: Bimolecular rate constant (ki) for the Pancreatic cholesterol esterase-catalyzed hydrolysis of 4-nitrophenyl butyrate
Details: for kon: read-out: kon (M-1-s-1)

| SMILES | kon (M-1-s-1) | kon |
| --- | --- | --- |
| CCCCNC(=O)Oc1ccc2ccccc2c1-c1c(OC(=O)CCC)ccc2ccccc12 [Butyric acid 2'-butylcarbamoyloxy-[1,1']binaphthalenyl-2-yl ester] | 6000 M-1-s-1 | 6000 M⁻¹ s⁻¹ |
| CCCCNC(=O)Oc1ccc2ccccc2c1-c1c(O)ccc2ccccc12 [Butyl-carbamic acid 2'-hydroxy-[1,1']binaphthalenyl-2-yl ester] | 500000.000000 M-1-s-1 | 500000 M⁻¹ s⁻¹ |
| CCCCNC(=O)Oc1ccc2ccccc2c1-c1c(OC(=O)NCCCC)ccc2ccccc12 [Butyl-carbamic acid 2'-butylcarbamoyloxy-[1,1']binaphthalenyl-2-yl ester] | 4000 M-1-s-1 | 4000 M⁻¹ s⁻¹ |
